Source: ChEMBL document CHEMBL1649380, “Prediction of drug intestinal absorption by new linear and non-linear QSPR” (Eur J Med Chem, 2011)

Assay: Drug absorption in human assessed as human intestinal absorption rate
Format: ADME, tissue-based, Intestine

CC(=O)CC(c1ccccc1)c1c(O)c2ccccc2oc1=O (centres undefined) [WARFARIN]
log10(%HIA +10): 2.033

NC(CO)C(=O)NNCc1ccc(O)c(O)c1O (centres undefined) [BENSERAZIDE]
log10(%HIA +10): 1.903

OC[C@@H](O)[C@@H](O)[C@H](O)[C@H](O)CO [MANNITOL]
log10(%HIA +10): 1.415

N=C(N)NCC1COc2ccccc2O1 (centres undefined) [GUANOXAN]
log10(%HIA +10): 1.778

CC(C)NCC(O)COc1ccc(CCNC(=O)NC(C)C)cc1 (centres undefined) [PAFENOLOL]
log10(%HIA +10): 1.591

COc1cccc2c1C(=O)c1c(O)c3c(c(O)c1C2=O)C[C@@](O)(C(=O)CO)C[C@@H]3O[C@H]1C[C@H](N)[C@H](O)[C@H](C)O1 [DOXORUBICIN]
log10(%HIA +10): 1.176

NS(=O)(=O)c1cc(C(=O)O)c(NCc2ccco2)cc1Cl [FUROSEMIDE]
log10(%HIA +10): 1.851

CCOC(=O)Nc1ccc2c(c1)N(C(=O)CCN1CCOCC1)c1ccccc1S2 [MORICIZINE]
log10(%HIA +10): 1.991

NC[C@H]1O[C@H](O[C@H]2[C@H](O)[C@@H](O[C@H]3O[C@H](CO)[C@@H](O)[C@H](N)[C@H]3O)[C@H](N)C[C@@H]2N)[C@H](O)[C@@H](O)[C@@H]1O [KANAMYCIN]
log10(%HIA +10): 1.041

CN1CCN2c3ccccc3Cc3ccccc3C2C1 (centres undefined) [MIANSERIN]
log10(%HIA +10): 1.903

CC(C)Cc1ccc(C(C)C(=O)O)cc1 (centres undefined) [IBUPROFEN]
log10(%HIA +10): 2.041

O=C(O)c1cc(/N=N/c2ccc(O)c(C(=O)O)c2)ccc1O [OLSALAZINE]
log10(%HIA +10): 1.09

CC(C)NCC(O)COc1cccc2ccccc12 (centres undefined) [PROPRANOLOL]
log10(%HIA +10): 2.037

O=c1[nH]c(=O)n([C@H]2C[C@H](O)[C@@H](CO)O2)cc1/C=C/Br [BRIVUDINE]
log10(%HIA +10): 1.58

OC[C@H]1O[C@H](OC[C@H]2O[C@H](O[C@]3(CO)O[C@H](CO)[C@@H](O)[C@@H]3O)[C@H](O)[C@@H](O)[C@@H]2O)[C@H](O)[C@@H](O)[C@H]1O [RAFFINOSE]
log10(%HIA +10): 1.013

Nc1nc(O)c2ncn(COC(CO)CO)c2n1 [GANCICLOVIR]
log10(%HIA +10): 1.134

OC[C@H]1O[C@@H](O[C@@H]2[C@@H](CO)O[C@](O)(CO)[C@H]2O)[C@H](O)[C@@H](O)[C@H]1O [LACTULOSE]
log10(%HIA +10): 1.025

CCCCC(=O)N(Cc1ccc(-c2ccccc2-c2nnn[nH]2)cc1)[C@H](C(=O)O)C(C)C
log10(%HIA +10): 1.813

N#C[C@H](O[C@@H]1O[C@H](CO[C@@H]2O[C@H](CO)[C@@H](O)[C@H](O)[C@H]2O)[C@@H](O)[C@H](O)[C@H]1O)c1ccccc1 [AMYGDALIN]
log10(%HIA +10): 1.176

CC1(C)S[C@@H]2[C@H](NC(=O)[C@H](C(=O)O)c3ccsc3)C(=O)N2[C@H]1C(=O)O [TICARCILLIN]
log10(%HIA +10): 1.176

Nc1cc(N2CCCCC2)nc(N)[n+]1[O-] [MINOXIDIL]
log10(%HIA +10): 2.033

CC[C@H]1OC(=O)[C@H](C)[C@@H](O[C@H]2C[C@@](C)(OC)[C@@H](O)[C@H](C)O2)[C@H](C)[C@@H](O[C@@H]2O[C@H](C)C[C@H](N(C)C)[C@H]2O)[C@](C)(O)C[C@@H](C)CN(C)[C@H](C)[C@@H](O)[C@]1(C)O [AZITHROMYCIN]
log10(%HIA +10): 1.663

CCOC(=O)[C@H](CCc1ccccc1)N[C@H]1CCc2ccccc2N(CC(=O)O)C1=O [BENAZEPRIL]
log10(%HIA +10): 1.672

O=C(O)CCC(=O)Nc1ccc(S(=O)(=O)Nc2nccs2)cc1 [SUCCINYLSULFATHIAZOLE]
log10(%HIA +10): 1.176

CCCc1c2oc(C(=O)O)cc(=O)c2cc2c(=O)cc(C(=O)O)n(CC)c12 [NEDOCROMIL]
log10(%HIA +10): 1.114

CCOC(=O)C1=C(C)NC(C)=C(C(=O)OC)C1c1cccc([N+](=O)[O-])c1 (centres undefined) [NITRENDIPINE]
log10(%HIA +10): 1.991

Cc1onc(-c2c(F)cccc2Cl)c1C(=O)N[C@@H]1C(=O)N2[C@@H]1SC(C)(C)[C@@H]2C(=O)O [FLOXACILLIN]
log10(%HIA +10): 1.699

NC(=O)N1C(=O)/C(=C(\O)c2cccs2)c2cc(Cl)ccc21 [TENIDAP]
log10(%HIA +10): 1.996

COc1nc(C)nc(Cl)c1N=C1NCCN1 [MOXONIDINE]
log10(%HIA +10): 1.991

CC(=O)NCCCS(=O)(=O)O [ACAMPROSATE]
log10(%HIA +10): 1.322

C=CCc1ccccc1OCC(O)CNC(C)C (centres undefined) [ALPRENOLOL]
log10(%HIA +10): 2.016

Nc1ccn([C@@H]2CS[C@H](CO)O2)c(=O)n1 [LAMIVUDINE]
log10(%HIA +10): 1.987

COc1ccc2cc([C@H](C)C(=O)O)ccc2c1 [NAPROXEN]
log10(%HIA +10): 2.037

N=C(N)c1ccc(OCCCCCOc2ccc(C(=N)N)cc2)cc1 [PENTAMIDINE]
log10(%HIA +10): 1

O=C(c1ccccc1)c1ccc2n1CCC2C(=O)O (centres undefined) [KETOROLAC]
log10(%HIA +10): 2

C[C@@H](O)[C@H]1C(=O)N2C(C(=O)O)=C(SCCN=CN)C[C@H]12 [IMIPENEM ANHYDROUS]
log10(%HIA +10): 1.176

Nc1ccn([C@H]2CC[C@@H](CO)O2)c(=O)n1 [ZALCITABINE]
log10(%HIA +10): 1.978

CCN1CCCC1CNC(=O)c1cc(S(N)(=O)=O)ccc1OC (centres undefined) [SULPIRIDE]
log10(%HIA +10): 1.732

CC(=O)N(CC(O)CO)c1c(I)c(C(=O)NCC(O)CO)c(I)c(C(=O)NCC(O)CO)c1I (centres undefined) [IOHEXOL]
log10(%HIA +10): 1.176

CC(CCc1ccccc1)NCC(O)c1ccc(O)c(C(N)=O)c1 (centres undefined) [LABETALOL]
log10(%HIA +10): 2.021

CCC[C@@H]1C[C@@H](C(=O)N[C@@H]([C@H]2O[C@H](SC)[C@H](O)[C@@H](O)[C@H]2O)[C@@H](C)O)N(C)C1 [LINCOMYCIN]
log10(%HIA +10): 1.574

[H]/N=C(/N)N[C@H]1[C@H](O)[C@@H](O)[C@H](O[C@@H]2O[C@@H](C)[C@](O)(C=O)[C@H]2O[C@@H]2O[C@@H](CO)[C@H](O)[C@@H](O)[C@@H]2NC)[C@@H](N/C(N)=N\[H])[C@@H]1O [STREPTOMYCIN]
log10(%HIA +10): 1.041

CC(C)(C)NC[C@H](O)COc1nsnc1N1CCOCC1 [TIMOLOL]
log10(%HIA +10): 2.021

CC(NC(C)(C)C)C(=O)c1cccc(Cl)c1 (centres undefined) [BUPROPION]
log10(%HIA +10): 1.987

OCCOCCN1CCN(C2=Nc3ccccc3Sc3ccccc32)CC1 [QUETIAPINE]
log10(%HIA +10): 1.919

CC(C)NCC(O)c1ccc(NS(C)(=O)=O)cc1 (centres undefined) [SOTALOL]
log10(%HIA +10): 2.021

O=C1Cc2cc(CCN3CCN(c4nsc5ccccc45)CC3)c(Cl)cc2N1 [ZIPRASIDONE]
log10(%HIA +10): 1.845

CC1(C)S[C@@H]2[C@H](NC(=O)[C@H](NC(=O)N3CCNC3=O)c3ccccc3)C(=O)N2[C@H]1C(=O)O [AZLOCILLIN]
log10(%HIA +10): 1

O=c1[nH]c2ccccc2n1C1CCN(CCCC(c2ccc(F)cc2)c2ccc(F)cc2)CC1 [PIMOZIDE]
log10(%HIA +10): 1.903

Oc1ccc(C(O)C2CCCCN2)cc1O (centres undefined) [RIMITEROL]
log10(%HIA +10): 1.763

C[C@H]1[C@H](NC(=O)/C(=N\OC(C)(C)C(=O)O)c2csc(N)n2)C(=O)N1S(=O)(=O)O [AZTREONAM]
log10(%HIA +10): 1.041

NCC[C@H](O)C(=O)N[C@@H]1C[C@H](N)[C@@H](O[C@H]2O[C@H](CN)CC[C@H]2N)[C@H](O)[C@H]1O[C@H]1O[C@H](CO)[C@@H](O)[C@H](N)[C@H]1O [ARBEKACIN]
log10(%HIA +10): 1

CO/N=C(\C(=O)N[C@@H]1C(=O)N2C(C(=O)O)=C(CSc3nc(=O)c(=O)[nH]n3C)CS[C@H]12)c1csc(N)n1 [CEFTRIAXONE]
log10(%HIA +10): 1.041

OCCN(CCO)c1nc(N2CCCCC2)c2nc(N(CCO)CCO)nc(N3CCCCC3)c2n1 [DIPYRIDAMOLE]
log10(%HIA +10): 1.833

N[C@@H](C(=O)N[C@@H]1C(=O)N2C(C(=O)O)=C(CSc3c[nH]nn3)CS[C@H]12)c1ccc(O)cc1 [CEFATRIZINE]
log10(%HIA +10): 1.934

CCN1CCCC1CNC(=O)c1cc(S(=O)(=O)CC)ccc1OC (centres undefined) [SULTOPRIDE]
log10(%HIA +10): 1.996

CCc1oc2ccccc2c1C(=O)c1cc(Br)c(O)c(Br)c1 [BENZBROMARONE]
log10(%HIA +10): 1.919

CCN(CC)C(=S)SSC(=S)N(CC)CC
log10(%HIA +10): 2.029

CN(C)[C@@H]1C(O)=C(C(N)=O)C(=O)[C@@]2(O)C(O)=C3C(=O)c4c(O)cccc4[C@@](C)(O)[C@H]3[C@H](O)[C@@H]12 [OXYTETRACYCLINE]
log10(%HIA +10): 1.833

CCOC(=O)[C@H](CCc1ccccc1)N[C@@H](C)C(=O)N1Cc2cc(OC)c(OC)cc2C[C@H]1C(=O)O [MOEXIPRIL]
log10(%HIA +10): 1.176

Cn1c(=O)c2c(ncn2CCCNCC(O)c2cc(O)cc(O)c2)n(C)c1=O (centres undefined) [REPROTEROL]
log10(%HIA +10): 1.845

CCOC(=O)[C@H](CCc1ccccc1)N[C@@H](C)C(=O)N1[C@H](C(=O)O)C[C@H]2CCCC[C@@H]21 [TRANDOLAPRIL]
log10(%HIA +10): 1.778

O=CN(O)CCCP(=O)(O)O [FOSMIDOMYCIN]
log10(%HIA +10): 1.602

CN(C)CCc1c[nH]c2ccc(CS(=O)(=O)N3CCCC3)cc12 [ALMOTRIPTAN]
log10(%HIA +10): 1.929

CC(C)(C)NCC(O)COc1cccc2c1CC(O)C(O)C2 (centres undefined) [NADOLOL]
log10(%HIA +10): 1.613

CC(C(=O)O)c1cccc(C(=O)c2ccccc2)c1 (centres undefined) [KETOPROFEN]
log10(%HIA +10): 2.009

CC(C)NCC(O)COc1ccc(CC(N)=O)cc1 (centres undefined) [ATENOLOL]
log10(%HIA +10): 1.785

C[C@@H](O)[C@H]1C(=O)N2C(C(=O)O)=C(S[C@@H]3CN[C@H](C(=O)N(C)C)C3)[C@H](C)[C@H]12 [MEROPENEM]
log10(%HIA +10): 1

O=C(O)CN(CCN(CC(=O)O)CC(=O)O)CC(=O)O [EDETIC ACID]
log10(%HIA +10): 1.176

C[C@@H]1O[C@@H]1P(=O)(O)O [FOSFOMYCIN]
log10(%HIA +10): 1.613

O=C(O)c1cc(=O)c2c(OCC(O)COc3cccc4oc(C(=O)O)cc(=O)c34)cccc2o1 [CROMOLYN]
log10(%HIA +10): 1.021

CO/N=C(\C(=O)N[C@@H]1C(=O)N2C(C(=O)O)=C(CSc3nc(C)c(CC(=O)O)s3)CS[C@H]12)c1csc(N)n1 [CEFODIZIME]
log10(%HIA +10): 1

OC(Cn1cncn1)(Cn1cncn1)c1ccc(F)cc1F [FLUCONAZOLE]
log10(%HIA +10): 2.027

CNC(=C[N+](=O)[O-])NCCSCc1ccc(CN(C)C)o1 [RANITIDINE]
log10(%HIA +10): 1.798

CC[C@@H](CO)NCCN[C@@H](CC)CO [ETHAMBUTOL]
log10(%HIA +10): 1.954

NS(=O)(=O)c1cc2c(cc1Cl)N=CNS2(=O)=O [CHLOROTHIAZIDE]
log10(%HIA +10): 1.528

COc1ccc2c(C(=S)N(C)CC(=O)O)cccc2c1C(F)(F)F [TOLRESTAT]
log10(%HIA +10): 1.881

CN1[C@@H]2CC[C@H]1C[C@@H](OC(=O)C(CO)c1ccccc1)C2 (some centres undefined) [ATROPINE]
log10(%HIA +10): 2.033

Cc1ccccc1N1C(=O)c2cc(S(N)(=O)=O)c(Cl)cc2NC1C (centres undefined) [METOLAZONE]
log10(%HIA +10): 1.863
